Common to all, as to test: DTP human tumour cell line panel, 48 h
The test system of assay [1] is A549 NSCLC.
The test system of assay [2] is BT-549 breast.
For assay [3], the system named is EKVX NSCLC.
Assay [4] has as its system HL-60(TB) leukemia.
The test system of assay [5] is HS 578T breast.
Assay [6] relates to K-562 leukemia.
The subject of assay [7] is MALME-3M melanoma.
Assay [8] has as its system NCI-H522 lung.
For assay [9], the system named is PC-3 prostate.
Assay [10] concerns SK-MEL-28 melanoma.

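A five-concentration, 48-hour dose response in 96-well plates underlies each endpoint, interpolated linearly between surrounding concentrations. Here, GI50 denotes the concentration required for 50% inhibition of growth. TGI: concentration producing complete growth inhibition.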

In the case of `COc1cc2cc[n+](C)c(Cc3ccc(Oc4cc(Cc5c6cc(OC)c(OC)cc6cc[n+]5C)ccc4OC)cc3)c2cc1OC`, the TGI in assay [1], in [2], in assay [3], in assay [4], in assay [5] and in assay [6] was greater than 100 µM in each case. The TGI in assay [7], in assay [8], in assay [9] and in [10] was greater than 100 µM in each case.
Regarding `CS(=O)(=O)Nc1ccc(NCc2cnc3ccc4[nH]cccc4c23)cc1`, the concentration for total growth inhibition (TGI) in assay [1] is greater than 100 µM; in [2], 73.2 µM; in assay [3], greater than 100 µM; in assay [4], 52.6 µM; in assay [5], 57 µM; in [6] it was 53.7 µM. The TGI in [7] was 46.6 µM; in assay [8] it was 42.3 µM; in assay [9], 48.1 µM; in [10] it was 66.4 µM.
On to `CC12OC(C(=O)C13CCC3)C1C(=O)c3c(O)ccc(O)c3C(=O)C12` (configuration not stated), for which the GI50 in assay [1] is 5.79 µM; in assay [2], 5.97 µM; in [3], 9.34 µM; in assay [4], 0.569 µM; in [5] it was 4.38 µM; in assay [6], 1.27 µM. In addition, the GI50 was 1.8 µM in [7], 2.95 µM in assay [8], 2.72 µM in assay [9] and 2.49 µM in assay [10]. For the same molecule, the TGI in assay [1] came out at 22.3 µM; in assay [2], 16.4 µM; in [3], 22.7 µM; in assay [4], 2.39 µM; in assay [5], 17.6 µM; in assay [6], 10.3 µM. In addition, the TGI was determined as 3.88 µM in assay [7], 10.2 µM in assay [8], 9.09 µM in assay [9] and 6.35 µM in [10].
Regarding `O=C(NN1CCCCC1)c1cc2cc(CCl)ccc2oc1=O`, the TGI amounted to 48.5 µM in assay [1]; 38 µM in [2]; 27.4 µM in assay [3]; 37.7 µM in assay [4]; 36.4 µM in assay [5]; 48.1 µM in assay [6]. Also, the TGI in assay [7] is 24.8 µM; in assay [8], 22.7 µM; in [9], 30.4 µM; in assay [10], greater than 100 µM.
For `CC(C)C(=O)CC(c1ccc(Br)cc1)N1N=C(C(C)C)CC1c1ccc(Br)cc1` (configuration not stated), the TGI in assay [1], in assay [3], in assay [6], in [7], in assay [8] and in [10] was greater than 100 µM in each case.
`CC(C)(C)COS(=O)OCC(C)(C)C`: the TGI in assay [1], in assay [2], in [3], in assay [4], in assay [5] and in assay [6] was greater than 100 µM each time. The TGI in [7], in [8], in [9] and in assay [10] was greater than 100 µM in each case.
For the molecule `Fc1c(F)c(F)c(CSc2nc3ccccc3[nH]2)c(F)c1F`, the total growth inhibition concentration (TGI) in assay [1], in assay [2], in [3], in [4], in assay [5] and in [6] was greater than 100 µM throughout. Also, the TGI in [7], in assay [8], in [9] and in assay [10] was greater than 100 µM each time.
Consider `COc1cc(S(=O)(=O)Nc2ccc(-c3csc(/N=C\c4cccc(Oc5ccccc5)c4)n3)cc2)ccc1Cl`, for which the TGI was greater than 100 µM in assay [1]; 93.1 µM in assay [2]; 81.4 µM in assay [3]; 57.6 µM in assay [4]; greater than 100 µM in [5]; 77 µM in assay [6]. Besides, the TGI in assay [7] was greater than 100 µM; in assay [8] it was 66.6 µM; in assay [9], greater than 100 µM; in assay [10], greater than 100 µM.
As for `CC(CCCCNC(=O)OC(C)(C)C)NC(=O)NC(C)CCCCNC(=O)OC(C)(C)C` (configuration not stated), the TGI in [1], in assay [2], in assay [3], in [4], in [5] and in assay [6] was greater than 100 µM throughout. Further, the TGI in [7], in [8], in assay [9] and in [10] was greater than 100 µM each time.
Regarding `C=C(CN(C)C)C(=O)c1ccccc1Cl`, the TGI in [1] was greater than 100 µM; in assay [3], greater than 76.6 µM; in assay [4], 29.6 µM; in assay [6], greater than 75.4 µM; in assay [7], 31.7 µM; in [8] it was 15.6 µM. Further, in assay [10], the TGI stood at 19.4 µM.
As to `CCC1=C(CC2NCCc3cc(OC)c(OC)cc32)CC2c3ccccc3CCN2C1` (configuration not stated), the TGI in assay [1] is greater than 100 µM; in assay [2], greater than 100 µM; in assay [3] it was greater than 100 µM; in [4] it was 46.5 µM; in assay [5], 49.7 µM; in assay [6] it was 22 µM. Besides, the concentration for total growth inhibition (TGI) in assay [7] was 27.7 µM; in assay [8], 29.1 µM; in [9], 78.3 µM; in [10], 29 µM.
As to `OC1CCSc2ccccc21` (configuration not stated), the TGI in assay [1], in [3], in assay [6], in assay [7], in [8] and in [10] was greater than 100 µM in each case.
Regarding `Cc1c2ccccc2cc2cccc[n+]12`, the TGI in assay [1] is greater than 100 µM; in assay [2], greater than 100 µM; in assay [3] it was 92.5 µM; in assay [4] it was greater than 100 µM; in [5], 73 µM; in [6] it was greater than 100 µM. The TGI was 27.9 µM in assay [7], 37.4 µM in assay [8], greater than 100 µM in assay [9] and 70.5 µM in assay [10].
Consider `CCCCSCCC(N)P(=O)(O)O` (configuration not stated), for which the TGI in assay [1], in [4], in assay [5], in assay [6], in [8] and in assay [9] was greater than 100 µM in each case. The TGI in assay [10] is greater than 100 µM.
With `CN(CCCNC(=O)c1nn(-c2ccccc2)c2c1Cc1ccccc1-2)CCCNC(=O)c1nn(-c2ccccc2)c2c1Cc1ccccc1-2`, the TGI in assay [1] is 3.58 µM; in assay [2] it was 3.21 µM; in assay [4] it was 2.5 µM; in assay [6], 2.17 µM; in assay [7], 2.91 µM; in assay [8] it was 2.63 µM. Further, the values for the TGI in assay [9] and in assay [10] were 3.09 µM and 2.77 µM, respectively.
In the case of `Oc1ccc(Cl)cc1C1=Nn2c(COc3ccc4c(c3)CCCC4)nnc2SC1`, the concentration for total growth inhibition (TGI) was found to be 92.9 µM in [1]; 34.6 µM in [2]; 34.7 µM in assay [3]; 38.2 µM in assay [4]; 30 µM in [5]; 49.4 µM in assay [6]. Moreover, the concentration for total growth inhibition (TGI) is greater than 100 µM in assay [7], 21.6 µM in assay [8], 26.7 µM in [9] and 14.4 µM in assay [10].
On to `Nc1csc(-c2scc3c2OCCO3)c1N`, for which the TGI in [1] is greater than 100 µM; in assay [2] it was 50.2 µM; in assay [3] it was 72.3 µM; in assay [4], 50.8 µM; in assay [5], greater than 100 µM; in assay [6] it was 87.4 µM. Besides, the TGI in assay [7] is 36 µM; in assay [8], 33.8 µM; in assay [9], 62.5 µM; in assay [10], 49.5 µM.
`CN(CCN1C(=O)c2cccc3cccc(c23)C1=O)CCN1C(=O)c2cccc3cccc(c23)C1=O`: the TGI in assay [1], in assay [2], in [3], in assay [4], in assay [5] and in [6] was greater than 100 µM each time. In addition, the TGI in [7] was greater than 100 µM; in [8] it was 40.6 µM; in assay [9] it was greater than 100 µM; in assay [10], greater than 100 µM.
Turning to `Clc1cccc(/C=c2\nc(-c3ccccc3)n3c2nc2ccccc23)c1`, the TGI in [1], in assay [2], in assay [3], in [4], in [5] and in [6] was greater than 100 µM each time. Also, the TGI in assay [7], in assay [9] and in assay [10] was greater than 100 µM in each case.
On to `O=C1/C(=C/c2ccc([N+](=O)[O-])cc2)Sc2scc(-c3cccc([N+](=O)[O-])c3)[n+]21`, for which the TGI in [1] is 56.7 µM; in assay [2], 18.7 µM; in assay [3], 25 µM; in assay [4], 1.07 µM; in assay [5], 48.1 µM; in assay [6], 8.16 µM. The figures for the total growth inhibition concentration (TGI) in [7], in assay [8] and in assay [9] were 3.22 µM, 2.69 µM and 26.8 µM, respectively.
Take `CS(=O)(=O)Nc1cccc(-c2ccc3ncnc(Nc4cncc(Cl)c4)c3c2)c1`: the GI50 in [1] was 2.5 µM; in assay [2], 2.34 µM; in assay [4], 2.66 µM; in assay [5] it was 1.35 µM; in assay [6] it was 2.59 µM; in assay [7], 2.34 µM. Besides, in assay [8], the GI50 was 1.75 µM. The TGI in [1] was greater than 100 µM; in [2] it was 7.39 µM; in assay [4], 9.2 µM; in [5] it was 6.41 µM; in assay [6], greater than 100 µM; in [7] it was 8.38 µM. Further, the TGI in [8] was 4.93 µM.
Consider `COc1ccc2c3c([nH]c2c1)[C@H](C=C(C)C)N1C(=O)[C@@H]2CCCN2C(=O)[C@@H]1C3`, for which the TGI in assay [1], in assay [2], in assay [3], in assay [4], in assay [5] and in [6] was greater than 100 µM each time. In addition, the TGI in [7] was greater than 100 µM; in assay [8] it was greater than 100 µM; in assay [9] it was greater than 100 µM; in [10], 55.5 µM.
In the case of `CCOC(=O)c1cccc(N=Nc2ncc(/C=C/C(=O)OC)[nH]2)c1`, the TGI was greater than 100 µM in [1]; greater than 100 µM in assay [2]; greater than 100 µM in assay [3]; 30 µM in [4]; greater than 100 µM in assay [5]; greater than 100 µM in [6]. Besides, the TGI is 70.3 µM in assay [7], 47.2 µM in [8], greater than 100 µM in assay [9] and greater than 100 µM in assay [10].
`Cc1ccc(S(=O)(=O)Nc2cc(=O)[nH]c3c2CCC3)cc1`: the TGI in assay [1], in assay [2], in assay [3], in assay [4], in assay [5] and in [6] was greater than 100 µM each time. Also, the concentration for total growth inhibition (TGI) in assay [7], in assay [8], in [9] and in assay [10] was greater than 100 µM in each case.
In the case of `O=C1CNc2cc(N3CCCCC3)ccc2N1`, the TGI is greater than 100 µM in [1]; greater than 100 µM in assay [2]; 50.9 µM in assay [3]; greater than 100 µM in assay [4]; greater than 100 µM in assay [5]; greater than 100 µM in assay [6]. The TGI in [7], in assay [8], in assay [9] and in [10] was greater than 100 µM each time.
For the molecule `O=S(C(c1ccccc1)=P(c1ccccc1)(c1ccccc1)c1ccccc1)c1ccc(Cl)cc1` (configuration not stated), the TGI in assay [3] is greater than 100 µM; in assay [4], 45 µM; in [5] it was 55.3 µM; in assay [6], greater than 100 µM; in assay [8] it was 38.6 µM; in assay [9], 68.4 µM. This molecule displayed a TGI in assay [10] greater than 100 µM.
For `NC(N)=N/N=C/c1c(-c2cccs2)nc2n1CCS2`, the GI50 was greater than 100 µM in [1]; 21.4 µM in assay [2]; 27.7 µM in [3]; 18.8 µM in [5]; 27.9 µM in assay [6]; 38.2 µM in assay [8]. The GI50 in [9] is 19.7 µM. The TGI in assay [1] is greater than 100 µM; in assay [2], 44.8 µM; in [3], 85.7 µM; in assay [5], 77.4 µM; in assay [6], 71.8 µM; in assay [8], greater than 100 µM. This molecule had a TGI in assay [9] of 36 µM.

For orientation: TGI means the concentration at which net growth stops. A lower TGI goes with greater sensitivity of the cells. As a reminder, the GI50 is the concentration that inhibits growth by half.

The values above are taken from PubChem BioAssay (NCI).
